Article PMC8308784, “Novel Purine Chemotypes with Activity against Plasmodium falciparum and Trypanosoma cruzi” (Pharmaceuticals, 2021)
Read-outs that look alike come from different tables or passages of the source.

Columns and labels:
[1] = test system: T. cruzi Tulahuen strain expressing β-galactosidase; test: anti-T. cruzi dose-response growth inhibition assay (Vero cells plus trypomastigotes, CPRG readout); type: cell-based
Description: (§1) T. cruzi parasites from the Tulahuen strain (discrete typing unit (DTU) VI) expressing β-galactosidase were maintained in culture by the infection of LLC-MK2 cells in DMEM supplemented with 2% FBS and 1% penicillin–streptomycin–glutamine (PSG), as described in [52]. When free-swimming trypomastigotes were released to the culture medium, they were centrifuged for 7 min at 2500 rpm and allowed to swim out of the pellet. Trypomastigotes were used to maintain the parasite cycle, or for the performance of the antiparasitic assays.
(§2) T. cruzi growth was primarily analyzed under three different concentrations (100, 10, and 1 mM) of the 81 compounds. Conditions were tested in triplicate for every concentration. Z-values varied between 0.81 and 0.92 in the different plates analyzed. Selected compounds (34.6% potential hit rate) were further analyzed via standard growth inhibition assays. The Z-values of dose–response assays correlated with those previously reported. For both assays, Vero cells and trypomastigotes from the Tulahuen T. cruzi strain expressing β-galactosidase were harvested, centrifuged, and resuspended in DMEM without phenol red supplemented with 1% PSG, 2% FBS, 1 mM sodium pyruvate, and 25 mM HEPES. Vero cells and trypomastigotes were counted, diluted at a concentration of 1 × 10^6 cells/mL each, and mixed 1:1 (v/v). Then, 100 μL of that mixture was added per well to the plates already containing the compounds. Each well contained 50,000 host cells and 50,000 parasites, i.e., multiplicity of infection (MOI) = 1. BNZ was used as control of maximal drug growth inhibition in each round, whereas each plate contained its own negative control (maximum parasite growth; Vero cells plus parasites without drugs) and positive control (minimum parasite growth; trypomastigote forms alone marking an enzymatic zero time or baseline galactosidase activity). After four days at 37 °C, 50 µL of a PBS solution containing 0.25% NP40 and 500 µM chlorophenol red-β-D-galactopyranoside (CPRG) substrate were added per well [32]. Plates were incubated at 37 °C for 4 h, and their absorbance read out at 590 nm using an Epoch Gene5 spectrophotometer.
(§3) Absorbance values derived from the anti-T. cruzi assays and fluorescence values from the anti-P. falciparum and cell toxicity assays were normalized to the controls. In the primary screening at three fixed doses, the compounds’ inhibitory activity was expressed as a percentage of the negative control (100% parasitic growth). In dose–response assays, the compounds’ IC50 and TC50 values were determined with GraphPad Prism 7 software (version 7.00, 2016), using a non-linear regression analysis model defined by the following equation: Y=100 ÷(1+10^((LogIC50−X)×HillSlope))

P. falciparum 3D7 [2] = test: P. falciparum primary screening at three fixed concentrations; type: cell-based; conditions: average of at least three experiments; for activity at 1 µM / activity at 10 µM / activity at 100 µM: Plasmodium falciparum, read-out: Primary screening, parasite growth relative to the negative control; for activity at 1 µM: 3D7, compound at 1 µM; for activity at 10 µM: 3D7, compound at 10 µM; for activity at 100 µM: 3D7, compound at 100 µM
Description: (§4) Apicomplexan parasite cultures were maintained at 3% hematocrit under an atmosphere of 37 °C in 93% N2, 5% CO2, and 2% O2, following standard methods. Synchronized cultures were obtained via 5% sorbitol lysis.
[…] Conditions were tested in triplicate for every concentration, and the test was repeated when the standard deviation was above 10% for any concentration. Z-values varied between 0.83 and 0.98 in the different plates analyzed. Selected compounds (12.3% potential hit rate) were further analyzed via standard growth inhibition assays, carried out as previously described in [54]. Briefly, parasitemia was adjusted to 1–1.3%, with >90% rings after sorbitol synchronization. Two hundred microliters of parasite culture were plated in 96-well microplates and incubated for 48 h at 37 °C in the presence of decreasing concentrations of the tested compounds, in triplicate. Parasitemia was determined by fluorescence-assisted cell sorting (FACS). Non-infected RBCs and samples containing parasitized RBCs (including controls with DMSO as carrier solvent) were diluted in PBS to a final concentration of ~1–10 × 10^6 cells/mL. The cell suspension was stained with SYTO 11 (0.5 mM stock in DMSO, Thermo Fisher Scientific, Waltham, MA, USA), to a final concentration of 0.5 μM. Samples were analyzed in a Becton Dickinson FACSCalibur. Sample excitation was carried out using a 488-nm, air-cooled argon-ion laser at a power of 15 mW, using forward and side scatter to gate the RBC population, and SYTO 11 green fluorescence (530 nm, FITC filter) was collected in a logarithmic scale. The single-cell population was selected on a forward–side scattergram, and the green fluorescence from this population was analyzed. Parasitemia was expressed as the number of parasitized cells per 100 erythrocytes.
as §3

[3] = test system: T. cruzi intracellular amastigotes; test: Antiamastigote growth inhibition assay; type: cell-based; conditions: intracellular amastigotes in Vero cells; mean (SD); read-out: T. cruzi IC50 b (antiamastigote assay)
Description: Vero cells were seeded in T-175 flasks (5 × 10^6 cells per flask) in DMEM supplemented with 1% penicillin–streptomycin and 10% FBS, and cultured for 24 h. Then, cells were washed once with PBS, and free-swimming trypomastigotes (1 × 10^7 trypomastigotes per flask; MOI = 1) in assay medium were added and allowed 18 h to infect. After that, infected cell monolayers were washed with PBS and detached. Cells were counted and diluted to a concentration of 5 × 10^5 cells per mL, before adding 100 µL per well to test plates already containing the drugs dispensed as described above. In all cases, we included BNZ as control drug, and each plate contained its own negative (Vero cells and parasites) and positive (Vero cells) controls.
as §3

Vero cells = test: Vero cell toxicity assay (alamarBlue); type: cell-based, green monkey; conditions: 4 days; minimum value of the 95% CI, except BNZ (mean (SD))
Description: Human erythrocytes were purified from B+ Rh+ blood samples and maintained at 4 °C in incomplete RPMI medium. Vero (green monkey kidney epithelial cells), LLC-MK2 (Rhesus monkey kidney epithelial cells), and HepG2 (human liver epithelial cells) cultures were cultivated in DMEM supplemented with 1% penicillin–streptomycin (PS) and 10% heat-inactivated fetal bovine serum (FBS) at 37 °C, 5% CO2, and >95% humidity, as described in [31]. HepG2 cells were also supplemented with 10% non-essential amino acids. Vero and MK2 cells were passaged twice per week at 1:12 ratios, while HepG2 cells were passaged at a 1:8 ratio.
Vero and HepG2 cells were detached, centrifuged, and resuspended in DMEM without phenol red. Cell viability was checked upon cell counting with trypan blue staining. Then, Vero and HepG2 cells were diluted at a concentration of 5 × 10^5 and 3.2 × 10^5 cells per mL, respectively, before adding 100 µL per well to the 96-well plate. Each run contained its own negative (untreated cells) and positive (medium alone) controls. Plates were incubated at 37 °C for 4 days in the case of Vero, or 2 in the case of HepG2 cells. Assay readout was made by adding 50 µL per well of a PBS solution containing 10% alamarBlue reagent (Thermo Fisher Scientific); then, plates were incubated for another 6 h at 37 °C, before recording the fluorescence intensity with a Tecan Infinite M Nano+ reader (excitation: 530 nm, emission: 590 nm).
as §3

P. falciparum 3D7 [4] = test: P. falciparum dose-response growth inhibition assay (FACS, SYTO 11); type: cell-based; conditions: P. falciparum 3D7, 48 h, mean (SD)
Description: as §4
P. falciparum growth was primarily analyzed under 3 different concentrations ([…]) of the 81 compounds. Conditions were tested in triplicate for every concentration, and the test was repeated when the standard deviation was above 10% for any concentration. Z-values varied between 0.83 and 0.98 in the different plates analyzed. Selected compounds (12.3% potential hit rate) were further analyzed via standard growth inhibition assays, carried out as previously described in [54]. Briefly, parasitemia was adjusted to 1–1.3%, with >90% rings after sorbitol synchronization. Two hundred microliters of parasite culture were plated in 96-well microplates and incubated for 48 h at 37 °C in the presence of decreasing concentrations of the tested compounds, in triplicate. Parasitemia was determined by fluorescence-assisted cell sorting (FACS). Non-infected RBCs and samples containing parasitized RBCs (including controls with DMSO as carrier solvent) were diluted in PBS to a final concentration of ~1–10 × 10^6 cells/mL. The cell suspension was stained with SYTO 11 (0.5 mM stock in DMSO, Thermo Fisher Scientific, Waltham, MA, USA), to a final concentration of 0.5 μM. Samples were analyzed in a Becton Dickinson FACSCalibur. Sample excitation was carried out using a 488-nm, air-cooled argon-ion laser at a power of 15 mW, using forward and side scatter to gate the RBC population, and SYTO 11 green fluorescence (530 nm, FITC filter) was collected in a logarithmic scale. The single-cell population was selected on a forward–side scattergram, and the green fluorescence from this population was analyzed. Parasitemia was expressed as the number of parasitized cells per 100 erythrocytes.
as §3

[5] = test system: T. cruzi Tulahuen strain expressing β-galactosidase; test: T. cruzi primary screening at three fixed concentrations; type: cell-based; conditions: for activity at 100 µM / activity at 1 µM / activity at 10 µM: Trypanosoma cruzi, TULAHUEN; for activity at 100 µM: read-out: Primary screening, growth inhibition values at 100 µM; for activity at 1 µM: read-out: Primary screening, growth inhibition values at 1 µM; for activity at 10 µM: read-out: Primary screening, growth inhibition values at 10 µM
Description: as §1
as §2, with “T. cruzi growth was primarily analyzed under three different concentrations (100, 10, and 1 mM) of the 81 compounds.” left out
as §3

[6] = Vero cells plus trypomastigotes, MOI 1, four days, mean (SD), read-out: T. cruzi IC50 a (anti-T. cruzi assay)
[7] = compound at 1 µM, average of at least three independent experiments
[8] = compound at 10 µM, average of at least three independent experiments
[9] = Plasmodium falciparum, 3D7, 48 h

Compound: C#CCOc1ncnc2c1ncn2N1CCN(C)CC1 [Compound 93]
- IC50 [1, 6]: 1.42 µM
- Primary screening, parasite growth relative to the negative control (P. falciparum 3D7 [2]; compound at 1 µM): 107.86%
- Primary screening, parasite growth relative to the negative control (P. falciparum 3D7 [2]; compound at 10 µM): 104.00%
- Primary screening, parasite growth relative to the negative control (P. falciparum 3D7 [2]; compound at 100 µM): 105.52%
- IC50 [3]: 218 µM
- Vero Cells TC50 (Vero cells): >2000 µM

Compound: COc1cccc(-n2cc(COc3ncnc4c3ncn4C(C)(C)C)nn2)c1 [Compound 88]
- IC50 [1, 6]: 12.7 µM
- Primary screening, parasite growth relative to the negative control (P. falciparum 3D7 [2]; compound at 1 µM): 92.13%
- Primary screening, parasite growth relative to the negative control (P. falciparum 3D7 [2]; compound at 10 µM): 81.69%
- Primary screening, parasite growth relative to the negative control (P. falciparum 3D7 [2]; compound at 100 µM): 21.43%
- IC50 [3]: 35.4 µM
- IC50 (P. falciparum 3D7 [4]): 65.3 µM
- Vero Cells TC50 (Vero cells): >180 µM

Compound: CC(C)(C)Nc1ncnc2c1nc(-c1ccccc1)n2C(C)(C)C [Compound 1B]
- IC50 ([1]; Trypanosoma cruzi, TULAHUEN, Vero, anti-T. cruzi IC50 of non-progressed compounds, read-out: Dose-response assay IC50): 68.4 µM
- activity at 1 µM (P. falciparum 3D7 [2]): 112%
- activity at 10 µM (P. falciparum 3D7 [2]): 108%
- activity at 100 µM (P. falciparum 3D7 [2]): 69.5%
- activity at 100 µM [5]: 12.7%
- activity at 1 µM [5, 7]: 96.3%
- activity at 10 µM [5, 8]: 93%

Compound: c1ccc(-c2nc3c(OCc4cn(Cc5cscn5)nn4)ncnc3n2N2CCCCC2)cc1 [Compound 76]
- activity at 1 µM (P. falciparum 3D7 [2]): 95.7%
- activity at 10 µM (P. falciparum 3D7 [2]): 84.3%
- activity at 100 µM (P. falciparum 3D7 [2]): 15.2%
- IC50 (P. falciparum 3D7 [4]): 18.3 µM
- IC50 (P. falciparum 3D7 [4]; [9]): ~20 µM
- activity at 100 µM [5]: 49.8%
- activity at 1 µM [5, 7]: 89.4%
- activity at 10 µM [5, 8]: 88.2%
- Vero Cells TC50 (Vero cells): >500 µM

Compound: CN1CCN(n2c(-c3ccccc3)nc3c(OCc4cn(Cc5cscn5)nn4)ncnc32)CC1 [Compound 84]
- Primary screening, parasite growth relative to the negative control (P. falciparum 3D7 [2]; compound at 1 µM): 96.34%
- Primary screening, parasite growth relative to the negative control (P. falciparum 3D7 [2]; compound at 10 µM): 88.61%
- Primary screening, parasite growth relative to the negative control (P. falciparum 3D7 [2]; compound at 100 µM): 13.94%
- IC50 (P. falciparum 3D7 [4]): 28 µM
- Primary screening, growth inhibition values at 1 µM [5, 7]: 93.615
- Primary screening, growth inhibition values at 10 µM [5, 8]: 93.94
- Vero Cells TC50 (Vero cells): >70 µM

Compound: COc1cccc(-n2cc(COc3ncnc4c3ncn4N3CCN(C)CC3)nn2)c1 [Compound 94]
- IC50 [1, 6]: 0.92 µM
- Primary screening, parasite growth relative to the negative control (P. falciparum 3D7 [2]; compound at 1 µM): 128.84%
- Primary screening, parasite growth relative to the negative control (P. falciparum 3D7 [2]; compound at 10 µM): 125.18%
- Primary screening, parasite growth relative to the negative control (P. falciparum 3D7 [2]; compound at 100 µM): 104.00%
- IC50 [3]: 75.1 µM
- Vero Cells TC50 (Vero cells): >60 µM

Compound: COc1ccccc1-n1cc(COc2ncnc3c2nc(-c2ccccc2)n3N(C)C)nn1 [Compound 33]
- activity at 1 µM (P. falciparum 3D7 [2]): 96.3%
- activity at 10 µM (P. falciparum 3D7 [2]): 85.4%
- activity at 100 µM (P. falciparum 3D7 [2]): 22.5%
- IC50 (P. falciparum 3D7 [4]): 19.2 µM
- IC50 (P. falciparum 3D7 [4]; [9]): ~20 µM
- activity at 100 µM [5]: 21.5%
- activity at 1 µM [5, 7]: 91.5%
- activity at 10 µM [5, 8]: 63.3%
- Vero Cells TC50 (Vero cells): >300 µM
